The term pIC50 denotes −log10 of the IC50, conventionally taken in molar units.

Each structure is given as a SMILES string. pIC50: −log10 of the molar value.

In assay [1] the target is T1, ovine COX-1 (Ovis aries, UniProt P05979).
T1 sequence (P05979 25-600): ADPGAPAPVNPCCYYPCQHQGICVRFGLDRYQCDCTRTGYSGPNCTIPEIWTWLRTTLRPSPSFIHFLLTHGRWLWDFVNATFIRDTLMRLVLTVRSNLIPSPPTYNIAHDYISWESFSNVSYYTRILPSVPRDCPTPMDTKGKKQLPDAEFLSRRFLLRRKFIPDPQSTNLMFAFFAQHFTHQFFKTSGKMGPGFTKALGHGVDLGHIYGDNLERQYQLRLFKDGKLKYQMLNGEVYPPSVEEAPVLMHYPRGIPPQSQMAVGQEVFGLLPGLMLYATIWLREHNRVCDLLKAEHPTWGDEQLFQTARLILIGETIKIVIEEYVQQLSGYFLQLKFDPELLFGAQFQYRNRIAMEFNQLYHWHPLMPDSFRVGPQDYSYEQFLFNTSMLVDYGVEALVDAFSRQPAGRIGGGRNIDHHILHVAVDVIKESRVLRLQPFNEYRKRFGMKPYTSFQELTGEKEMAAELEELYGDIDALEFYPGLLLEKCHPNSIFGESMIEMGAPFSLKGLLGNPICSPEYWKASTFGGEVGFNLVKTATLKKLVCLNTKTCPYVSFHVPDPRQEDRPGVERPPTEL
The experiment in a line: COX (ovine) Inhibitor Screening Assay, COX-1. Format: biochemical. Particulars: PGF2α by EIA, 18 hours of incubation. The procedure:
(§1) The COX (ovine) Inhibitor Screening Assay was performed mainly to determine the selective inhibition of tested compounds (6, 7, 8 and 9) towards the ovine COX-1 and human recombinant COX-2 isoenzymes. Adding arachidonic acid (AA) helped convert the COX component into PGG2, followed by a reduction of PGG2 into PGH2. The following addition of SnCl2 converted PGH2 into PGF2α. The assay directly measures the PGF2α via enzyme immunoassay (EIA) using a broadly specific antiserum that is bound to all PG tracers. Depending on the tested compounds inhibitory effect, the concentration of PGF2α in each well varied and was inversely proportional to the amount of PG tracers that were able to bind to the antiserum. PG tracers-antiserum complex was left to bind to the mouse monoclonal anti-rabbit antibody that had been coated to the well during the 18 hours of incubation. Ellman's reagent was added to give distinct yellow coloration to the products from this enzymatic reaction, which absorbed strongly at 412 nm. The intensity of the color was proportional to the amount of PG tracers-antiserum complex bound to the well, which was inversely proportional to the concentration of PGF2α present.
(§2) The inhibitory activity of tested compounds was determined based on IC50 values, whereas the selectivity was based on their selectivity indices (SI), which are defined as COX-1 IC50/COX-2 IC50. In the assay system, indomethacin was used as a non-selective COX inhibitor standard, while NS-398 was used as a COX-2 selective inhibitor standard.

Assay [2] has as its target T2, human recombinant COX-2 (Homo sapiens, UniProt P35354).
T2 sequence (P35354 18-604): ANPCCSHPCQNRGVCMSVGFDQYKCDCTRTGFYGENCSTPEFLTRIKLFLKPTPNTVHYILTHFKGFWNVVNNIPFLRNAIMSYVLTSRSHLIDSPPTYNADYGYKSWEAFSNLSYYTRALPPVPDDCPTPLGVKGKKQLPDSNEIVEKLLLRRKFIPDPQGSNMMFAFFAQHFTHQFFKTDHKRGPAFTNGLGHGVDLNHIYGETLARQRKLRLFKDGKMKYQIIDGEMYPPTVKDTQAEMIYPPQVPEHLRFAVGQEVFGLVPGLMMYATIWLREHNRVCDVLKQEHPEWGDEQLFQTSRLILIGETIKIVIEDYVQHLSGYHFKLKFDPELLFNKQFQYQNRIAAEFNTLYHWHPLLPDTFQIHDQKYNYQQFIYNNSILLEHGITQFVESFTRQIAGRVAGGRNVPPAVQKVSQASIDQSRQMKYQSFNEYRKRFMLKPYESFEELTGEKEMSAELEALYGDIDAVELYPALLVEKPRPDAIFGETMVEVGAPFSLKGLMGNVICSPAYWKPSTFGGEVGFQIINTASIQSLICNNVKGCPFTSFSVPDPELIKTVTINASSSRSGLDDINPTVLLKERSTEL
The experiment in a line: COX (ovine) Inhibitor Screening Assay, COX-2. The assay is classed as biochemical. As to conditions: for pIC50: human recombinant COX-2, PGF2α by EIA, 18 hours of incubation; for selectivity of inhibition, COX-2 versus COX-1, in words: ovine COX-1 versus human recombinant COX-2. The protocol: as §1, §2

In turn, `O=c1[nH]c(Cc2ccc(F)cc2)nc2sc3c(c12)CCC3` [Compound 6, 2-(4-Fluorobenzyl)-3,5,6,7-tetrahydro-4H-cyclopenta[4,5]thieno[2,3-d]pyrimidin-4-one] had a pIC50 in assay [1] of 4.41. For the same molecule, in assay [2], the “SI (selectivity index, COX-1 IC50/COX-2 IC50)” value came out at 0.68; the pIC50 was 4.25; the “selectivity of inhibition, COX-2 versus COX-1, in words” value (from here on “selectivity of inhibition”) is recorded as “mild selective inhibition against COX-2”.
Taken in the same sequence, the figures for `COc1ccc(Cc2nc3sc4c(c3c(=O)[nH]2)CCC4)cc1` [Compound 7, 2-(4-Methoxybenzyl)-3,5,6,7-tetrahydro-4H-cyclopenta[4,5]thieno[2,3-d]pyrimidin-4-one] were 3.65, 6.98, 4.49 and “mild selective inhibition against COX-2”.
`COc1ccc(-c2nc3sc4c(c3c(=O)[nH]2)CCC4)cc1` [Compound 8, 2-(4-Methoxyphenyl)-3,5,6,7-tetrahydro-4H-cyclopenta[4,5]thieno[2,3-d]pyrimidin-4-one] gave a pIC50 in assay [1] of 4.08. In addition, in assay [2], the “SI (selectivity index, COX-1 IC50/COX-2 IC50)” value is given as 11.41; the negative-log IC50 (pIC50) is 5.14; the “selectivity of inhibition” value is reported as “mild selective inhibition against COX-2”.
`O=C(Nc1nc2sc3c(c2c(=O)[nH]1)CCC3)c1ccc(F)cc1` [Compound 9, 4-Fluoro-N-(4-oxo-3,5,6,7-tetrahydro-4H-cyclopenta[4,5]thieno[2,3-d]pyrimidin-2-yl)benzamide]: the pIC50 in assay [1] is 4.16. Also, in assay [2], the “SI (selectivity index, COX-1 IC50/COX-2 IC50)” value was 1.26; the pIC50 is 4.26; the “selectivity of inhibition” value is recorded as “mild selective inhibition against COX-2”.

For the origin of these results see patent US12227516B1, “Selective COX-2 inhibition of 2-(substituted benzyl)-3,5,6,7-tetrahydro-4H-cyclopenta[4,5]thieno[2,3-d]pyrimidin-4-ones and 4-fluoro-n-(4-oxo-3,5,6,7-tetrahydro-4H-cyclopenta[4,5]thieno[2,3-d]pyrimidin-2-yl)benzamide as anti-inflammatory agents” (KING FAISAL UNIVERSITY, priority 2023, dated 2025).
